Experimental data as given in US6423689B1, “Peptidyl calcium channel blockers” (Warner-Lambert Company, priority 1997, dated 2002).

Biological target: T1, N-type Ca2+ channels in IMR-32 cells (Homo sapiens, UniProt Q00975)
T1 construct: host or cells: IMR-32 cells, differentiated with dibutyryl cAMP and bromodeoxyuridine
Assay: Inhibition of N-type calcium flux in IMR-32 cells (Indo-1 fluorescence, nitrendipine present)
Format: cell-based
Conditions: for IC50: IMR-32 cells, 5 μM nitrendipine, K+ depolarization
Description: Measurement of N-type Ca^2+ Channel Blocking Potencies of Compounds in IMR-32 Cells Using the Fluorescent Ca^2+ Indicator Indo-1
IMR-32 cells are a human tumoral cell line of neural origin. […] Calcium flux into these cells may be induced by stimulation with elevated potassium concentrations. The L-channel component of calcium flux may be blocked by adding 5 μM nitrendipine. The remaining component of calcium entry into the IMR-32 cells is due to calcium flux through N-type calcium channels. Intracellular calcium concentrations are measured using the fluorescent calcium indicator Indo 1. The effect of drug concentration on calcium uptake is studied.
The IMR-32 cell line was obtained from the American Type Culture Collection (Rockville, Md.). Cells were grown in Eagle's Minimum Essential Medium with Eagle's salts supplemented with 10% fetal bovine serum, 2 mM L-Gln and antibiotic/antimycotic mixture (Gibco). […] After 7 to 13 days of differentiation, cells were detached using 0.5 mM EDTA and loaded with 5 μM Indo-1 acetoxymethyl ester (Molecular Probes, Eugene, OR) at […] for 45 minutes. Loaded cells were washed twice, resuspended (˜10^7 cells/mL) in assay buffer (10 mM HEPES/Tris pH 7.4 in Hank's Balanced Salt Solution without bicarbonate or phenol red containing 0.5% bovine serum albumin) and kept on ice until use. Fluorescence measurements were carried out in a Photon Technology International (PTI, South Brunswick, N.J.) Model RF-F3004 spectrofluorometer with dual emission monochromators using excitation at 350 nm and emission at 400 and 490 nm. The instrument was equipped with a thermostated cuvette holder with stirring capabilities as well as with a computer-controlled pump which allowed for reagent addition during measurement. Instrument control and data collection was done by PTI's OSCAR software running on an IBM compatible computer. […] Samples were incubated for 10 minutes at 30° C. and then aliquoted into three 10×10 mm disposable acrylic cuvettes. Emission signals at 400 and 490 nm were acquired from each cuvette at 30° C. for 50 seconds. At 20 seconds after the start of reading, cells were depolarized by the addition of 160 μL of stimulation solution (1M KCl, 68 mM CaCl2) to the cuvette via the computer-controlled pump. Ratio of dual emission signals (400 nm/490 nm), which is proportional to intracellular Ca^2+ concentration, was plotted against time, and the difference between maximal response after stimulation and basal value (before stimulation) was determined. Values obtained in this way were plotted as a function of drug concentration. IC50 values of test compounds were calculated by fitting a four-parameter logistic function to the data using the least squares method.

T1 sequence (Q00975 whole entry): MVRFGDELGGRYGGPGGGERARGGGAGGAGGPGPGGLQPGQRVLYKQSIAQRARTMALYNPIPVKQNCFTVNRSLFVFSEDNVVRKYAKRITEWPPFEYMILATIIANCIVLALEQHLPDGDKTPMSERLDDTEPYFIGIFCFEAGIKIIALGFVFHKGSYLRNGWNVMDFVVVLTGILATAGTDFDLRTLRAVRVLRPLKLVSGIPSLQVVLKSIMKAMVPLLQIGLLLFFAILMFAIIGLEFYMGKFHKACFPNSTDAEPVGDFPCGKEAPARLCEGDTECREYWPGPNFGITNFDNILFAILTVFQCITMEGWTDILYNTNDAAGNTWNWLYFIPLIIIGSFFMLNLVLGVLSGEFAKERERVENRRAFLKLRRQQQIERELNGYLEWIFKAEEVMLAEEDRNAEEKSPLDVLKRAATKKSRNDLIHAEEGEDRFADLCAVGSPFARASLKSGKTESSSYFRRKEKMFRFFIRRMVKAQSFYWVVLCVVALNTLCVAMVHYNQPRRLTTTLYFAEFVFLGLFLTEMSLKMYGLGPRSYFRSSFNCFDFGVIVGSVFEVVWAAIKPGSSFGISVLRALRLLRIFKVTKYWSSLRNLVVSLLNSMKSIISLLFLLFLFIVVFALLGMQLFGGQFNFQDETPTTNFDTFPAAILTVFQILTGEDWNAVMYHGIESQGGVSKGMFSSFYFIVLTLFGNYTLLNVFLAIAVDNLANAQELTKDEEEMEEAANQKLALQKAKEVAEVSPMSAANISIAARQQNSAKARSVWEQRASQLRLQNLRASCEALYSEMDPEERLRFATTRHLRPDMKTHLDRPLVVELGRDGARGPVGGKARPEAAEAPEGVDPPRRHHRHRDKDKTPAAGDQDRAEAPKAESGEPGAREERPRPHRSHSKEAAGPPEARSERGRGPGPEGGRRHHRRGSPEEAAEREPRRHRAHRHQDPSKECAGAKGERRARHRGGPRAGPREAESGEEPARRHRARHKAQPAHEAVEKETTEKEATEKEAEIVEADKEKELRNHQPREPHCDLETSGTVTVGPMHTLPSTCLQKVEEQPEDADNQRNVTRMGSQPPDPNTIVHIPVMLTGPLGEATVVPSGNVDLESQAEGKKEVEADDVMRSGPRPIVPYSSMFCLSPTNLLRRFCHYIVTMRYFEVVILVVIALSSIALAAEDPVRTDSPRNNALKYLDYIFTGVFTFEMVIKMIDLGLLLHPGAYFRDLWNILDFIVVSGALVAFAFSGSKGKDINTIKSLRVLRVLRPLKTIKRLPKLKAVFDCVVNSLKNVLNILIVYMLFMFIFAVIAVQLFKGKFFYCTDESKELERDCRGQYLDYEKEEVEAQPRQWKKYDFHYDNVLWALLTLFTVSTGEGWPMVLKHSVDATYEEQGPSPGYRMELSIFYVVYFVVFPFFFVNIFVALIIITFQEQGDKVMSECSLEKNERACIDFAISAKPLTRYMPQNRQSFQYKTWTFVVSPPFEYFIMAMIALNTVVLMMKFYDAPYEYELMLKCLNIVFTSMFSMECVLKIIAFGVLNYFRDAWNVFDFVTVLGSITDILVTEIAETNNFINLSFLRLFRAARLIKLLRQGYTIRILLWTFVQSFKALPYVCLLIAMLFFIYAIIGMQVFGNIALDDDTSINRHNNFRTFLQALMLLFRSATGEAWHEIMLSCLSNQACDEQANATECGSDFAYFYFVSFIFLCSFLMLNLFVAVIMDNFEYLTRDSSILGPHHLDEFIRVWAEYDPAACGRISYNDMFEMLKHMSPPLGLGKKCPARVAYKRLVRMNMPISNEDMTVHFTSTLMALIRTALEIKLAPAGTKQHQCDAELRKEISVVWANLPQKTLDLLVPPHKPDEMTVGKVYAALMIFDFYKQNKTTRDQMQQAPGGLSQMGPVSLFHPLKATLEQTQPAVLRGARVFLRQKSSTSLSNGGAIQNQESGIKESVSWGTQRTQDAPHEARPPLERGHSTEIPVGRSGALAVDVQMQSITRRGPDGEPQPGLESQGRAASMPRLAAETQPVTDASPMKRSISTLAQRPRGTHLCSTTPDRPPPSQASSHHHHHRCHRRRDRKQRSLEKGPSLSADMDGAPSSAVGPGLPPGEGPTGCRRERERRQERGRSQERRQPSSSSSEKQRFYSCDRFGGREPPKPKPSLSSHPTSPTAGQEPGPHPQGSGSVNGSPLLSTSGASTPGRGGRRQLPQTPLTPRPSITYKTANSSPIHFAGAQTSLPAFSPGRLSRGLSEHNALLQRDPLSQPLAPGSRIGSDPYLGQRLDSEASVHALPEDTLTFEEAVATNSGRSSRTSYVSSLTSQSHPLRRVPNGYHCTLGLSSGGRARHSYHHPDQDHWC
T1 sequence (P54289 25-956 partner limits assumed): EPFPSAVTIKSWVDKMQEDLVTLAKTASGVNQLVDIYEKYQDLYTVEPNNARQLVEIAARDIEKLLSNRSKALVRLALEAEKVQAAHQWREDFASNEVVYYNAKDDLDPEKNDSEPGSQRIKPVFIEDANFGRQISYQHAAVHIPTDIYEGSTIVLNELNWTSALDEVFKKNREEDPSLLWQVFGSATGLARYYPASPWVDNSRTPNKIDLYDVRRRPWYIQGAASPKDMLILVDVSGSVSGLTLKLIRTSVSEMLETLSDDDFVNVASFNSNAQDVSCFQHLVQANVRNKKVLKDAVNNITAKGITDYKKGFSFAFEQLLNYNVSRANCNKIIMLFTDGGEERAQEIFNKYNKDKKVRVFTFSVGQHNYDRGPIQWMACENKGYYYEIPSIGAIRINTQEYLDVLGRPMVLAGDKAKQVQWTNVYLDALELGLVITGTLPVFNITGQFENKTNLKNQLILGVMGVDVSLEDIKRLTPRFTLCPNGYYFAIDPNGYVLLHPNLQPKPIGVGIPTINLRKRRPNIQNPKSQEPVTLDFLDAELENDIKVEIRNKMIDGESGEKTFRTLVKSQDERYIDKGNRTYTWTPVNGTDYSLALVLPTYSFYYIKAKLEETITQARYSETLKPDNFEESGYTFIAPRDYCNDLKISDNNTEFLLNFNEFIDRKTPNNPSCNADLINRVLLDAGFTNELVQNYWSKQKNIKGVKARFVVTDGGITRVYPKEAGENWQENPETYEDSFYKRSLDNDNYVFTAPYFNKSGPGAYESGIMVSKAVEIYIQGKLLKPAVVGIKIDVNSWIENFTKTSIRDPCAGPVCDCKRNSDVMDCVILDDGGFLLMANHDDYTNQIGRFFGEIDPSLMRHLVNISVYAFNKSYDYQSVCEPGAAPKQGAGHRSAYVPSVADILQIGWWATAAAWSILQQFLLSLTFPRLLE
T1 sequence (P54289 957-1103 partner limits assumed): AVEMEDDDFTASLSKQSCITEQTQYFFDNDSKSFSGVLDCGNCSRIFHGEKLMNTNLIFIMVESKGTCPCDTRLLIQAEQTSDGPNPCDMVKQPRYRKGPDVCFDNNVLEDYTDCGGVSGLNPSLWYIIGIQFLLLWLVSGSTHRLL
T1 sequence (P54284 whole entry partner): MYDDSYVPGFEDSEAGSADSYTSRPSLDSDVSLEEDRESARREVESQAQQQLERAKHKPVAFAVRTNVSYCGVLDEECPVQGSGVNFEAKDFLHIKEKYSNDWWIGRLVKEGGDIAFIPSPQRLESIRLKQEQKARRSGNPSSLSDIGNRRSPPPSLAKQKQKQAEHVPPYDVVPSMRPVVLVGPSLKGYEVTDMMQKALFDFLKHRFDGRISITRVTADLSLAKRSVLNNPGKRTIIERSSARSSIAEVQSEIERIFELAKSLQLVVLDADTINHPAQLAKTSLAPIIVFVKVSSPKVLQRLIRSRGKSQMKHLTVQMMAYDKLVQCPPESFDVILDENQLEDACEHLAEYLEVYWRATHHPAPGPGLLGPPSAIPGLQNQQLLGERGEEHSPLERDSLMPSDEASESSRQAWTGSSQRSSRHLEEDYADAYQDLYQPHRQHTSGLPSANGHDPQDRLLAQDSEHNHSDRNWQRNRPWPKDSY

IC50	Inhibition of Calcium Flux in IMR-32 Cells % Inhibition at 1 μM	Compound	other results
1.8 µM		CC(C)C[C@H](NC(=O)N1CCCCCC1)C(=O)N[C@@H](Cc1ccc(OCc2ccccc2)cc1)C(=O)NC(C)(C)CO [Example 266, Azepane-1-carboxylic acid {(S)-1-[(S)-2-(4-benzyloxy-phenyl)-1-(2-hydroxy-1,1-dimethyl-ethylcarbamoyl)-ethylcarbamoyl]-3-methyl-butyl}-amide]	
4.7 µM		CC(C)C[C@H](NC(=O)N1CCCCCC1)C(=O)N[C@@H](Cc1ccc(OCc2ccccc2)cc1)C(=O)NC1CC(C)(C)NC(C)(C)C1 [Example 203, [S-(R*,R*)]-Azepane-1-carboxylic acid {1-[2-(4-benzyloxy-phenyl)-1-(2,2,6,6-tetramethyl-piperidin-4-ylcarbamoyl)-ethylcarbamoyl]-3-methyl-butyl}-amide]	inhibition at 1 µM (IMR-32): 15%; inhibition at 10 µM (IMR-32): 70%
	50%	CC(C)C[C@H](NC(=O)N1CCCCCC1)C(=O)N[C@@H](Cc1ccc(OCc2ccccc2)cc1)C(=O)NCCC#N (relative stereo) [Example 236, [S-(R*,R*)]-Azepane-1-carboxylic acid {1-[2-(4-benzyloxy-phenyl)-1-(2-cyano-ethylcarbamoyl)-ethylcarbamoyl]-3-methyl-butyl}-amide]	Inhibition of Calcium Flux in IMR-32 Cells % Inhibition at 10 μM (10 μM): 93%
4.3 µM		CC(C)C[C@H](NC(=O)N1CCCCCC1)C(=O)N[C@@H](Cc1ccc(OCc2ccccc2)cc1)C(=O)NCCCO [Example 255, [S-(R*,R*)]-Azepane-1-carboxylic acid {1-[2-(4-benzyloxy-phenyl)-1-(3-hydroxy-propylcarbamoyl)-ethylcarbamoyl]-3-methyl-butyl}-amide]	
3.7 µM		CC(C)(C)NC(=O)[C@H](Cc1ccc(OCc2ccccc2)cc1)NC(=O)[C@@H]1CCCN1C(=O)N1CCCCCC1 [Example 153, [S-(R*,R*)]-1-(Azepane-1-carbonyl)-pyrrolidine-2-carboxylic acid [2-(4-benzyloxy-phenyl)-1tert-butylcarbamoyl-ethyl]-amide]	

Further lines, the molecule ahead of its results:

Compound	IC50	Inhibition of Calcium Flux in IMR-32 Cells % Inhibition at 1 μM	other results
COc1ccc(S(=O)(=O)N[C@@H](CC(C)C)C(=O)N[C@@H](Cc2ccc(OCc3ccccc3)cc2)C(=O)OC(C)(C)C)cc1 (relative stereo) [Example 103, [S-(R*,R*)]-3-(4-Benzyloxy-phenyl)-2-[2-(4-methoxy-benzenesulfonylamino)-4-methyl-pentanoylamino]-propionic acid tert-butyl ester]		28%	
CC(C)C[C@H](NC(=O)c1ccc2ccccc2c1)C(=O)N[C@@H](Cc1ccc(OCc2ccccc2)cc1)C(=O)OC(C)(C)C (relative stereo) [Example 99, [S-(R*,R*)]-3-(4-Benzyloxy-phenyl)-2-{4-methyl-2-[(naphthalene-2-carbonyl)-amino]pentanoylamino}-propionic acid tert-butyl ester]		19%	
CC(C)C[C@H](NC(=O)Nc1cccc(Cl)c1)C(=O)N[C@@H](Cc1ccc(OCc2ccccc2)cc1)C(=O)OC(C)(C)C (relative stereo) [Example 74, [S-(R*,R*)]-3-(4-Benzyloxy-phenyl)-2-{2-[3-(3-chloro-phenyl)-ureido]-4-methyl-pentanoylamino}-propionic acid tert-butyl ester]		45%	
CC(C)C[C@H](NC(=O)Nc1cccc(C(F)(F)F)c1)C(=O)N[C@@H](Cc1ccc(OCc2ccccc2)cc1)C(=O)OC(C)(C)C (relative stereo) [Example 76, [S-(R*,R*)]-3-(4-Benzyloxy-phenyl)-2-{4-methyl-2-[3-(3-trifluoromethyl-phenyl)-ureido]-pentanoylamino}-propionic acid tert-butyl ester]		27%	
